Data: publication PMC6261043, “Characterization of a heat responsive UDP: Flavonoid glucosyltransferase gene in tea plant (Camellia sinensis)” (PLoS ONE, 2018)

target: T1, UGT73A17 (rUGT73A17, CsUGT73A17) (Camellia sinensis, UniProt W6JMN6, L296I/A466V, form not given); assay: HPLC product quantification, Lineweaver-Burk; assay type: biochemical; conditions: UDP-glucose as sugar donor, 100 mM Tris-HCl pH 7.0, 30°C
T1 construct: gene CsUGTC1; full-length ORF (1422 bp, 473 residues) from tea EST library, N-terminal MBP fusion (pMAL-c2X), E. coli Novablue, purified
T1 sequence (W6JMN6 entry or part of it L296I/A466V, form open): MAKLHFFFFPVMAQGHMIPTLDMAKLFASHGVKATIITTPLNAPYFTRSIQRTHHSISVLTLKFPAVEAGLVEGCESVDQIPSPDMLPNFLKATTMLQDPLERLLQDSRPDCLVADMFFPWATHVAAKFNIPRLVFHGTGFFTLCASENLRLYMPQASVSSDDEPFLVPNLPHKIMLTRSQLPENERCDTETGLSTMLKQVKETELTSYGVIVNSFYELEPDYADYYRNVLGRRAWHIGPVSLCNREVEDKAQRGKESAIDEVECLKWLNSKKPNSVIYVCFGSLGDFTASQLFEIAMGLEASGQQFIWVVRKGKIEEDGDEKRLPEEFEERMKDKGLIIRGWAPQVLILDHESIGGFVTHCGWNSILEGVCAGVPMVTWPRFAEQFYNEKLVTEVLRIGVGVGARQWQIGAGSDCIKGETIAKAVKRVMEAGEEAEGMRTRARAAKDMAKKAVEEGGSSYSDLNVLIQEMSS

Row | Structure (SMILES) | Km
1 | O=C(O[C@H]1Cc2c(O)cc(O)cc2O[C@H]1c1ccc(O)c(O)c1)c1cc(O)c(O)c(O)c1 [epicatechin gallate] | 77 ± 5.9 µM
2 | O=c1cc(-c2ccc(O)c(O)c2)oc2cc(O)cc(O)c12 [luteolin] | 3.2 µM
3 | O=c1c(O)c(-c2cc(O)c(O)c(O)c2)oc2cc(O)cc(O)c12 [myricetin] | 8.8 ± 4.3 µM
4 | O=C1C[C@@H](c2ccc(O)cc2)Oc2cc(O)cc(O)c21 [naringenin] | 9.5 ± 5 µM

Next, values leading:

Row | Km | Structure (SMILES)
5 | 5.5 ± 1.5 µM | O=c1cc(-c2ccc(O)cc2)oc2cc(O)cc(O)c12 [apigenin]
6 | 5.2 µM | O=c1c(O)c(-c2ccc(O)cc2)oc2cc(O)cc(O)c12 [kaempferol]
7 | 4.6 ± 0.71 µM | O=c1cc(-c2cc(O)c(O)c(O)c2)oc2cc(O)cc(O)c12 [tricetin]
